Test results taken from patent EP0364941A1, “Branched-chain alkyl esters of 2-(4-(2-piperidino ethoxy)benzoyl)benzoic acid, processes for their preparation and their use as spasmolytic agents” (HOECHST AKTIENGESELLSCHAFT, priority 1988, dated 1990).

Key:
[1] = system: Porcine liver esterase; assay: Enzymatic hydrolysis rates by porcine liver esterase; format: in vitro ADME; details: test compound 1 mM, pH 8.0, 37°C
Procedure: Porcine liver esterase (0.5 U = 2 µg) was preincubated in 40 mM Tris-HCl buffer, pH 8.0, at 37°C for 5 min. The reaction was initiated with the addition of the test compound (final concentration, 1 mM) in the final volume of 250 µl. Enzyme reaction was terminated at different time intervals by the addition of 60 µl of 1 M acetic acid. The solution was made alkaline (pH 10.5) by adding 0.4 M NaOH and the alkaline solution was rapidly extracted (three times) with 2.5 ml of chloroform. An aliquot of the aqueous supernatant was diluted with double distilled water and the absorbance was measured at 290 nm. Amount of test compound III (molar extinction = 14,400) formed was calculated.

[2] = system: isolated guinea pig ileum; assay: Antispasmodic activity in isolated guinea pig ileum (acetylcholine-induced contraction); format: cell-based
Procedure: Small intestines obtained from freshly sacrificed guinea pigs (weight range, 200 - 400 g) of either sex were cleaned and stored in tyrode solution. A piece of ileum was mounted in an organ bath containing tyrode solution at 37°C and maintained at a tension of 0.5 to 1.0 g. The solution was continuously aerated with compressed air. After an initial equilibration period, a sub-maximal dose of acetylcholine required for measurable contraction was standardised. Tension changes were monitored using an isotonic strain gauge attached to the tissue and the responses were recorded on a strip chart recorder. Antispasmodic activity of test compounds at different concentrations was followed and the IC₅₀ values were calculated from dose response curves.

[3] = system: small intestine; assay: Antispasmodic activity in anaesthetized dog (carbachol or acetylcholine induced intestinal contractions); format: in vivo; details: anaesthetised dog
Procedure: Male mongrel dogs of weight range 10 to 15 kg were anaesthetised with pentobarbitone sodium (35 mg/ kg,i.v.). Slow i.v. infusion of pentobarbitone (5 mg/kg/hour) was given for maintenance anaesthesia. The endotracheal tube was inserted to facilitate spontaneous breathing. Both femoral artery and vein were cannulated respectively for recording blood pressure and administering drugs. After laparotomy, a small portion of small intestine distal to duodenum was isolated and saline filled balloon inserted and the opening was sutured. A fine polyethylene cannula was then inserted into the mesenteric artery which supplies to the area of intestine containing balloon for injection of carbachol or acetylcholine. A Statham pressure transducer was then attached to balloon cannula for recording both circular and longitudinal muscle contractions. All the parameters were recorded on 4 channel Nihon-Kohden recorder. The intestinal contractions were recorded after administering a standard dose of carbachol or acetylcholine (0.5 to 3 µg). Test compounds I and II were given at different doses 3,10 and 20 mg/kg intra-duodenally and spasmolytic activity was assessed at various time intervals. Anti-spasmodic activity was assessed by calculating percent reduction in agonist induced contractions and also noting onset and duration of activity. The test compounds were dissolved in distilled water (1% soln.). Table 3 Test compounds I and II were given at different doses (10, 30, 100, 300 and 1000 µg/kg) intravenously and spasmolytic activity was assessed at different time intervals. Anti-spasmodic activity was assessed by calculating percent reduction in agonist induced contractions. The ID₅₀ value was calculated from the dose response curve.

[4] = system: large Bowel; assay: Motility of the large bowel (colonic motor complex) in conscious dogs; format: in vivo
Excerpt: Male dogs (THG Tierhandelsgesellschaft Rodenbach, Hoe:BEAK (Beagle)) weighing 15 - 20 kg were used in all experiments.
At least 4 weeks prior the experiment the dogs had been equipped with miniaturised strain gage force transducers (T1-T2) (2x4mm), sutured onto the gut at the locations mentioned below. The cables of the transducers were embedded into a cannula which carried the plug for external electric connection. This stainless steel cannula was implanted into the abdominal wall, close below the costal arch. Each transducer was connected to a measuring bridge. The signals were on line stored using a HP 9835 A computer, allowing later analysis of the data. • T1 : Colon ascendens 10 cm aborafrom the ileoceval valve (ICV) • T2 : Colon transversum 25 cm aborad from the ICV
18 hours prior to the experiment food was withdrawn from the animals, water ad libidum. All experiments started between 08:00 and 09:00 am.
The following parameters were determined: The duration of the cycle (min) The duration of the colonic motor complex (CMC) (min) The maximal height of the concentrations (AU: arbitrary units)
Data from the two recording sites (T1-T2) were pooled. […]
For detection of significant differences (p < 0.05) the unpaired t-test was used. Only significant differences were indicated by *.

µmol test compound III formed per mg protein per ml ([1]; Time 0.0 hours): 0.00 µmol per mg protein per ml | µmol test compound III formed per mg protein per ml ([1]; Time 0.5 hours): 0.05 µmol per mg protein per ml | µmol test compound III formed per mg protein per ml ([1]; Time 2.0 hours): 0.10 µmol per mg protein per ml | µmol test compound III formed per mg protein per ml ([1]; Time 3.5 hours): 0.10 µmol per mg protein per ml | IC50 ([2]; Cavia porcellus, read-out: Guinea pig ileum IC₅₀): 0.01 µg/mL
SMILES: CC(C)OC(=O)c1ccccc1C(=O)c1ccc(OCCN2CCCCC2)cc1.Cl [Test Compound II, Isopropyl-2-[4-(2-piperidino-ethoxy)-benzoyl]-benzoate hydrochloride]
Guinea pig ileum Duration of action [2]: > 7.0 min | Duration ([3]; 3 mg/kg intra-duodenal): 35 min | On-set ([3]; 3 mg/kg intra-duodenal): 7 min | Percent Inhibition ([3]; 3 mg/kg intra-duodenal): 54% | Duration ([3]; 10 mg/kg intra-duodenal): 78 min | On-set ([3]; 10 mg/kg intra-duodenal): 6.5 min | Percent Inhibition ([3]; 10 mg/kg intra-duodenal): 83% | ED50 ([3]; Canis lupus familiaris, iv, read-out: ID₅₀): 0.01 mg/kg | Duration of action ([3]; intravenous administration): > 60 min | effect on colonic motility ([4]; 1 mg/kg i.g.): uneffective | Duration CMC ([4]; 1 mg/kg intragastrically): 6 ± 2 min | Duration Cycle ([4]; 1 mg/kg intragastrically): 28 ± 11 min | Max.heigth of CMC ([4]; 1 mg/kg intragastrically): 50±25 AU | Total number of spikes ([4]; 1 mg/kg intragastrically): 5.6±1.7 n/CMC | Duration CMC ([4]; 3 mg/kg intragastrically): 11 ± 3 min | Duration Cycle ([4]; 3 mg/kg intragastrically): 136 ± 42 min | Max.heigth of CMC ([4]; 3 mg/kg intragastrically): 40±23 AU | Total number of spikes ([4]; 3 mg/kg intragastrically): 5.5±1.0 n/CMC | duration of complete inhibition of colonic motility (CMC) ([4]; 4 mg/kg i.g.): about 2 hours
